Reference: patent US20050113292A1 (priority 2003, published 2005)

Work on CC[C@H](C)[C@H](NC(=O)[C@H](CC(C)C)NC(=O)[C@H](CO)NC(=O)[C@H](Cc1c[nH]cn1)NC(=O)[C@@H](NC(=O)[C@H](CC(C)C)NC(=O)[C@H](CO)NC(=O)[C@@H](NC(=O)[C@H](Cc1ccc(O)cc1)NC(=O)[C@H](CC(N)=O)NC(=O)[C@H](CC(N)=O)NC(=O)[C@@H](NC(=O)[C@H](CCC(=O)O)NC(=O)[C@H](CCCNC(=N)N)NC(=O)[C@H](CC(=O)O)NC(=O)[C@H](Cc1c[nH]c2ccccc12)NC(=O)[C@H](CCC(=O)O)NC(=O)[C@H](CCSC)NC(=O)[C@H](Cc1c[nH]c2ccccc12)NC(=O)[C@@H]1CSC(C(=O)N[C@@H](CCCCNC(=O)CCCCCNC(=O)CCCCCNC(=O)[C@H](CCCCNC(=O)CCCCCNC(=O)CCCCCNC(=O)CCCCCNC(=O)[C@H](CCCCN)NC(=O)C2N[C@H](C(=O)N[C@@H](Cc3c[nH]c4ccccc34)C(=O)N[C@@H](CCSC)C(=O)N[C@@H](CCC(=O)O)C(=O)N[C@@H](Cc3c[nH]c4ccccc34)C(=O)N[C@@H](CC(=O)O)C(=O)N[C@@H](CCCNC(=N)N)C(=O)N[C@@H](CCC(=O)O)C(=O)N[C@H](C(=O)N[C@@H](CC(N)=O)C(=O)N[C@@H](CC(N)=O)C(=O)N[C@@H](Cc3ccc(O)cc3)C(=O)N[C@H](C(=O)N[C@@H](CO)C(=O)N[C@@H](CC(C)C)C(=O)N[C@H](C(=O)N[C@@H](Cc3c[nH]cn3)C(=O)N[C@@H](CO)C(=O)N[C@@H](CC(C)C)C(=O)N[C@H](C(=O)N[C@@H](CCC(=O)O)C(=O)N[C@@H](CCC(=O)O)C(=O)N[C@@H](CO)C(=O)N[C@@H](CCC(N)=O)C(=O)N[C@@H](CC(N)=O)C(=O)N[C@@H](CCC(N)=O)C(=O)N[C@@H](CCC(N)=O)C(=O)N[C@@H](CCC(=O)O)C(=O)N[C@@H](CCCCN)C(=O)N[C@@H](CC(N)=O)C(=O)N[C@@H](CCC(=O)O)C(=O)N[C@@H](CCC(N)=O)C(=O)N[C@@H](CCC(=O)O)C(=O)N[C@@H](CC(C)C)C(=O)N[C@@H](CC(C)C)C(=O)O)[C@@H](C)CC)[C@@H](C)CC)[C@@H](C)O)[C@@H](C)CC)CS2)NC(=O)C2N[C@H](C(=O)N[C@@H](Cc3c[nH]c4ccccc34)C(=O)N[C@@H](CCSC)C(=O)N[C@@H](CCC(=O)O)C(=O)N[C@@H](Cc3c[nH]c4ccccc34)C(=O)N[C@@H](CC(=O)O)C(=O)N[C@@H](CCCNC(=N)N)C(=O)N[C@@H](CCC(=O)O)C(=O)N[C@H](C(=O)N[C@@H](CC(N)=O)C(=O)N[C@@H](CC(N)=O)C(=O)N[C@@H](Cc3ccc(O)cc3)C(=O)N[C@H](C(=O)N[C@@H](CO)C(=O)N[C@@H](CC(C)C)C(=O)N[C@H](C(=O)N[C@@H](Cc3c[nH]cn3)C(=O)N[C@@H](CO)C(=O)N[C@@H](CC(C)C)C(=O)N[C@H](C(=O)N[C@@H](CCC(=O)O)C(=O)N[C@@H](CCC(=O)O)C(=O)N[C@@H](CO)C(=O)N[C@@H](CCC(N)=O)C(=O)N[C@@H](CC(N)=O)C(=O)N[C@@H](CCC(N)=O)C(=O)N[C@@H](CCC(N)=O)C(=O)N[C@@H](CCC(=O)O)C(=O)N[C@@H](CCCCN)C(=O)N[C@@H](CC(N)=O)C(=O)N[C@@H](CCC(=O)O)C(=O)N[C@@H](CCC(N)=O)C(=O)N[C@@H](CCC(=O)O)C(=O)N[C@@H](CC(C)C)C(=O)N[C@@H](CC(C)C)C(=O)O)[C@@H](C)CC)[C@@H](C)CC)[C@@H](C)O)[C@@H](C)CC)CS2)C(N)=O)N1)[C@@H](C)CC)[C@@H](C)O)[C@@H](C)CC)C(=O)N[C@@H](CCC(=O)O)C(=O)N[C@@H](CCC(=O)O)C(=O)N[C@@H](CO)C(=O)N[C@@H](CCC(N)=O)C(=O)N[C@@H](CC(N)=O)C(=O)N[C@@H](CCC(N)=O)C(=O)N[C@@H](CCC(N)=O)C(=O)N[C@@H](CCC(=O)O)C(=O)N[C@@H](CCCCN)C(=O)N[C@@H](CC(N)=O)C(=O)N[C@@H](CCC(=O)O)C(=O)N[C@@H](CCC(N)=O)C(=O)N[C@@H](CCC(=O)O)C(=O)N[C@@H](CC(C)C)C(=O)N[C@@H](CC(C)C)C(=O)O (stereo partly drawn) [Compound 3α3-C34] yielded an IC50 (HIV-1 92MW965.26) of 0.16 nM, an IC50 (HIV-1 89.6) of 10.2 nM and an IC50 (HIV-1 92HT599.24) of 0.25 nM. It also gave an IC50 (HIV-1 NL4-3) of 0.73 nM, an IC50 (HIV-1 92UG024.2) of 0.6 nM and an IC50 (NL4-3 (MT-4)) of 1.59 nM. For the same molecule, the IC50 (HIV-1 pNLHxB) was 0.76 nM, the IC50 (T20-resistant virus) was 0.47 nM and the IC50 (T-20 Resistant Virus) was 0.34 nM. The Ratio (T-20 Resistant Virus) was 0.21.
